The values below come from patent US20110190285A1 (priority 2008, published 2011).

SMILES strings stand for the structures.

botulinum (serotype-A), sequence (P0DPI1 2-1296 limits assumed): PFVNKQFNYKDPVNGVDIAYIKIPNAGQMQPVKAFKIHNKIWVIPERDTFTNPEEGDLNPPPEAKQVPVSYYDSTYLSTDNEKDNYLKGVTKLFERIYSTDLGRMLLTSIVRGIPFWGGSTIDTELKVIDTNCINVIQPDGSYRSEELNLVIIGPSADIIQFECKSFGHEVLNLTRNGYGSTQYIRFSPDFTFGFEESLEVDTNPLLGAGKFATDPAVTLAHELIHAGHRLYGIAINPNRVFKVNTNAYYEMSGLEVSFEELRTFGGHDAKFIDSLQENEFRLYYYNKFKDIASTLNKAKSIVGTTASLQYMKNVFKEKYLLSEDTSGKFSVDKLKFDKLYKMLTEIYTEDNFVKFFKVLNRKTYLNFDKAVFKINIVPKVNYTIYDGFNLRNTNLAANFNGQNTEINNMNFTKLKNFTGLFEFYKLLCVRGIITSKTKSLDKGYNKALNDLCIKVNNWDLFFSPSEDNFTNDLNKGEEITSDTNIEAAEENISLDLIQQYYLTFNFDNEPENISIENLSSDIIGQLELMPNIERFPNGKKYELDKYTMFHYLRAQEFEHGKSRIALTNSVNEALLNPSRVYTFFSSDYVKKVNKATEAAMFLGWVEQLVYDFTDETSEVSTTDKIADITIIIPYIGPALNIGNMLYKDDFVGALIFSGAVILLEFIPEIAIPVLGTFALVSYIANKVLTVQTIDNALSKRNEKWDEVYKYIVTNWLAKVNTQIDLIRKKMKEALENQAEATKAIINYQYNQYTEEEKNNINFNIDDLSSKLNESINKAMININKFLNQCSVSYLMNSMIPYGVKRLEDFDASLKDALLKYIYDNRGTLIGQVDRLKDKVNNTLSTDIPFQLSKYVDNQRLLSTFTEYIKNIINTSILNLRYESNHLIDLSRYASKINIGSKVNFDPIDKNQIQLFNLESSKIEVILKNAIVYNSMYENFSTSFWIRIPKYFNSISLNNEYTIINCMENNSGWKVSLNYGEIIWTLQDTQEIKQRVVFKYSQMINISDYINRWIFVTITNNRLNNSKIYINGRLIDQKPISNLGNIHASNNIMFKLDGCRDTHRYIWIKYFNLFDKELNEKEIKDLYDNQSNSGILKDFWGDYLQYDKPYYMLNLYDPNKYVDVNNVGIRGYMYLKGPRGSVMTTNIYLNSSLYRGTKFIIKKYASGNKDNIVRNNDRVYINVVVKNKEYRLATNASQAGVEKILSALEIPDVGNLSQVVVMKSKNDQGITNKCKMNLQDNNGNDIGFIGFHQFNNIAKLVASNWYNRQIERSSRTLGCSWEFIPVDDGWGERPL

One assay concerns the target botulinum (serotype-A) (Clostridium botulinum, UniProt P0DPI1). In words: cell-based. As to conditions: read-out: Cell Biology (% inhibition at 30 uM).
As to `O=C(CS)Nc1cc(-c2ccc(Cl)cc2)n[nH]1`, the inhibition (in general, how much of the control response was suppressed) at 30 µM was in the range of 57 to 100%. Still for that read-out and setting: next, `CCOC(=O)Cc1csc(NC(=O)CS)n1`: 86%. In the case of `Cc1ccc(NC(=O)CS)cc1C#N`, the inhibition at 30 µM turned out to be 77%. For the molecule `O=C(CS)Nc1ccc2c(c1)Cc1cc(Br)ccc1-2`, the inhibition at 30 µM is 90%. Regarding `O=C(CS)Nc1cc(-c2ccc(F)cc2)n[nH]1`, the inhibition at 30 µM is 73 to 78%.

The assay is the same for the next values; noted with them: read-out: Cell Biology IC50.
With `O=C(CS)Nc1cc(-c2ccc(Cl)cc2)n[nH]1`, the IC50 (usually the concentration at which inhibition is half-maximal) was 10 to 19 µM. On the same count and under the same terms, in the case of `CC(NC(=O)CS)c1ccc(Cl)cc1Cl` (stereo not drawn) [drawing 69] it was 18 µM.

The target in another assay is botulinum toxin recombinant light chain (Clostridium botulinum, UniProt P0DPI0). Kind of assay: biochemical.
botulinum toxin recombinant light chain, sequence (P0DPI0 2-448 limits assumed): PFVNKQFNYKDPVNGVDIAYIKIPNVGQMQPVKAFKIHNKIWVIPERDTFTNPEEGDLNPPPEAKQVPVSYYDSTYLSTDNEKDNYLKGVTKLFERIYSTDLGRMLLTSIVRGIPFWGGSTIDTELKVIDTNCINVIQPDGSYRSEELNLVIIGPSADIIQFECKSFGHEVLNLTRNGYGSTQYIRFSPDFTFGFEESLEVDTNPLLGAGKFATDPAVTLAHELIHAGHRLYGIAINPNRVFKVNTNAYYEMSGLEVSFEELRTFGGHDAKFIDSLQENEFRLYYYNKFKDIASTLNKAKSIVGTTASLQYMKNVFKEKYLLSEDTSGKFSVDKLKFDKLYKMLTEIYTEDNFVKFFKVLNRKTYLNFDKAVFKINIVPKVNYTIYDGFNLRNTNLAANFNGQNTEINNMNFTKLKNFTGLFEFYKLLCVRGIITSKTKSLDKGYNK
Conditions: not given
Consider `C[C@@H](NC(=O)CS)c1ccc2ccccc2c1`, for which the IC50 is 8 to 21 µM. For `CC(NC(=O)CS)c1ccc(Cl)cc1Cl` (stereo not drawn) [drawing 65], the IC50 lay within 5 to 27 µM.
